US20220378688A1, “Moisturizing or anti-atopic composition containing fatty acids or fatty acid derivatives” (DAEBONG LS, LTD, priority 2019, published 2022)
Where “and” joins values, the source holds several entries; their conditions need not be identical. Equal entries are not always repeated.

Experiments:
Type in all cases: cell-based, human
hyaluronic acid = test: Hyaluronic acid production in HaCaT cells (ELISA); conditions: 24 hours, untreated = 100
Description: HaCaT cells were aliquoted in a 24-well plate at 1.0×10^5 cells/mL and cultured at 37° C., 5% CO2 conditions for 18 hours. It was replaced with a serum-free DMEM medium, and the samples in Table 2 were treated and cultured for 24 hours. After that, the culture medium was removed, centrifuged at 15,000 rpm for 5 minutes, and the supernatant was removed and stored frozen (−20° C.) until quantification. As a control group, a sample treated with retinoic acid (RA) at a concentration of 10 μM was used. Enzyme-Linked Immunosorbent Assay (ELISA) was performed using a hyaluronic acid ELISA kit (Elabscience Biotechnology Co., Ltd) and the method provided by the manufacturer.

[1] = tested on: thymus and activation regulated chemokine (TARC); test: TARC production inhibitory activity in HaCaT cells (ELISA); conditions: IFN (30 ng/ml) + TNF (30 ng/ml) stimulated = 100
Description: In order to confirm the atopic treatment effect on the carrot stems and leaves extract according to the present disclosure, atopic thymus and activation regulated chemokine (TARC) was analyzed.
HaCaT cells were aliquoted in a 24-well plate at 1.5×10^5 cells/mL and cultured at 37° C., 5% CO2 conditions for 18 hours. […] Then, the atopic chemokine production content of the supernatant obtained by centrifugation of the culture medium (12,000 rpm, 3 min) was measured. All samples were stored frozen (−20° C.) until quantification. For TARC content, a human enzyme-linked immunosorbent assay (ELISA) kit (R&D Systems Inc., Minneapolis, Minn., USA) was used, and the r^2 value of the standard curve for the standard was 0.99 or more.

HaCaT cells = test: Cytotoxicity assessment, EZ-Cytox assay, HaCaT cell growth rate; conditions: untreated = 100
Description: HaCaT cells, which are human epidermal keratinocytes, were distributed from Dr. C. G. Hyun (Jeju National University, Korea) and Dulbecco's Modified Eagle's Medium (DMEM) medium containing 100 units/ml of penicillin-streptomycin and 10% by volume of fetal bovine serum (FBS) was used and cultured at 37° C. and 5% CO2 incubator. Subculture was performed at intervals of 3 to 4 days.
The EZ-cytox assay is a representative method for measuring cell viability using the principle that water solution tetrazolium salt (WST) reacts with dehydrogenase of living cells to generate orange water-soluble formazan.
HaCaT cells were aliquoted in a 96-well plate at 1.0×10^4 cells/mL using DMEM medium supplemented with 10% by volume of FBS to check cytotoxicity and then cultured at 37° C., 5% CO2 condition for 18 hours. The cultured HaCaT cells were exchanged with serum-free DMEM to treat the extract to be evaluated. After that, EZ-cytox was added to each well and reacted for 30 minutes at 37° C. and 5% CO2, and absorbance was measured at 450 nm using a microplate reader. The average absorbance value for each sample group was obtained, and the cell viability was evaluated by comparing it with the absorbance value of the control group.

Filaggrin = test: Skin barrier strengthening: filaggrin production in HaCaT cells (ELISA); conditions: 10 μM, 24 hours, untreated = 100
Description: HaCaT cells were aliquoted in a 24-well plate at 1.0×10^5 cells/mL and cultured at 37° C., 5% CO2 conditions for 18 hours. It was exchanged with serum-free DMEM, and the carrot stems and leaves extracts and roots extracts of the samples in Table 2 were treated and cultured for 24 hours. After removing the culture medium and washing with PBS for each group, PBS is containing no drug that may affect protein quantification was treated. The protein was collected after lysing the cells by repeating low-temperature and room-temperature incubation. As a control group, a sample treated with retinoic acid (RA) at a concentration of 10 μM was used. Quantification was performed using the Filaggrin-ELISA kit (Elabscience Biotechnology Co., Ltd) and was performed by the method provided by the manufacturer.

## CCCCC/C=C\C/C=C\CCCCCCCC(=O)OC[C@@H](O)CO (racemic) [Monolinolein]
Hyaluronic acid; 25 μM
  HA production (%): 102.7 ± 0.14%
Hyaluronic acid; 50 μM
  HA production (%): 113.7 ± 0.14%
Hyaluronic acid; 100 μM
  HA production (%): 114.4 ± 0.05%
[1]; 12.5 μM
  TARC production (%): 75.2 ± 0.07%
[1]; 25 μM
  TARC production (%): 37.7 ± 1.59%
[1]; 50 μM
  TARC production (%): 30.9 ± 1.97%
HaCaT cells; 12.5 μM
  HaCaT cell growth rate (%): 106.0 ± 2.6%
HaCaT cells; 25 μM
  HaCaT cell growth rate (%): 102.2 ± 1.0%
HaCaT cells; 50 μM
  HaCaT cell growth rate (%): 101.5 ± 1.7%
HaCaT cells; 100 μM
  HaCaT cell growth rate (%): 122.6 ± 2.1%

## CCCCC/C=C\C/C=C\CCCCCCCC(=O)OCC [Ethyl linoleate, ethyl linoleate]
Hyaluronic acid; 25 μM
  HA production (%): 92.7 ± 0.27%
Hyaluronic acid; 50 μM
  HA production (%): 85.5 ± 0.27%
Hyaluronic acid; 100 μM
  HA production (%): 89.5 ± 0.07%
[1]; 12.5 μM
  TARC production (%): 78.3 ± 0.10%
[1]; 25 μM
  TARC production (%): 53.8 ± 0.16%
[1]; 50 μM
  TARC production (%): 42 ± 0.81%
HaCaT cells; 12.5 μM
  HaCaT cell growth rate (%): 92.5 ± 3.0%
HaCaT cells; 25 μM
  HaCaT cell growth rate (%): 92.3 ± 2.0%
HaCaT cells; 50 μM
  HaCaT cell growth rate (%): 88.9 ± 2.3%
HaCaT cells; 100 μM
  HaCaT cell growth rate (%): 94.1 ± 3.0%

## CC1=C(/C=C/C(C)=C/C=C/C(C)=C/C(=O)O)C(C)(C)CCC1 [Retinoic acid, retinoic acid, reference compound]
Hyaluronic acid; 10 μM
  HA production (%): 153.1 ± 0.14% and 100.0 ± 0.36%
Filaggrin
  FLG production (%): 157.5 ± 0.13%
HaCaT cells; 10 μM
  HaCaT cell growth rate (%): 103.8 ± 2.1%

## CC/C=C\C/C=C\C/C=C\CCCCCCCC(=O)O [α-Linolenic acid, α-linolenic acid]
Hyaluronic acid; 25 μM
  HA production (%): 105.0 ± 0.06%
Hyaluronic acid; 50 μM
  HA production (%): 110.5 ± 0.02%
Hyaluronic acid; 100 μM
  HA production (%): 116.3 ± 0.26%
[1]; 12.5 μM
  TARC production (%): 72.6 ± 0.03%
[1]; 25 μM
  TARC production (%): 45.6 ± 0.51%
[1]; 50 μM
  TARC production (%): 35.7 ± 1.44%
HaCaT cells; 12.5 μM
  HaCaT cell growth rate (%): 97.8 ± 3.6%
HaCaT cells; 25 μM
  HaCaT cell growth rate (%): 96.1 ± 4.4%
HaCaT cells; 50 μM
  HaCaT cell growth rate (%): 92.1 ± 3.9%
HaCaT cells; 100 μM
  HaCaT cell growth rate (%): 106.9 ± 1.0%
